Laboratory results as given in US20020052295A1, “Diacyl derivatives of propylene diamine having herbicidal activity” (priority 1999, published 2002).

Legend:
Conditions in all cases: lowest tested rate giving 80% or greater inhibition, approx. 14 days after planting and treating, greenhouse
SOLNI = experiment: Pre-emergence herbicidal activity on SOLNI (black nightshade); type: in vivo, Solanum nigrum
How it was run: (§1)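 GR80 from percent growth inhibition versus untreated controls, rated about 14 days after planting and pre-emergence soil-surface application. Compound applied in 50:50 acetone:water over freshly covered seeds; pots kept in greenhouse at 30/21 °C day/night.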

POROL = experiment: Pre-emergence herbicidal activity on POROL (common purslane); type: in vivo, Portulaca oleracea
How it was run: as §1

CIRAR = experiment: Pre-emergence herbicidal activity on CIRAR (canada thistle, seedling); type: in vivo, Cirsium arvense
How it was run: as §1

CHEAL = experiment: Pre-emergence herbicidal activity on CHEAL (common lambsquarters); type: in vivo, Chenopodium album
How it was run: as §1

ECHCG = experiment: Pre-emergence herbicidal activity on ECHCG (barnyardgrass); type: in vivo, Echinochloa crus-galli
Description: (§2) All such uses, and the biological activity enabling such uses, are embraced by the term “herbicidal” herein. Tables 15 and 16 summarize results of tests conducted as described below to determine the pre-emergence herbicidal activity, in the form of a GR80 value, of illustrative compounds of this invention. […] Where herbicidal activity was evident but 80% inhibition was not achieved at the highest rate tested (typically 1000 g/ha), an asterisk (*) is shown in the following tables. Herbicidal activity evident in the form of symptoms of phytotoxicity, in the absence of at least 80% inhibition at any rate, is indicated in the tables by “phyto”. A blank cell in the following tables indicates no herbicidal or phytotoxic response at any rate tested.
(§3) The pre-emergence tests were conducted by the following procedure. Topsoil was sieved to pass through a 1.27 cm screen. Fertilizer was added to the topsoil and the mixture was then sterilized by heating. The topsoil mixture was placed in a pot and compacted to a depth of 1.0 to 1.25 cm from the top of the pot. Seeds of each of several monocotyledonous and dicotyledonous annual plant species were placed on top of the soil. Additional soil was subsequently placed over the seeds to level-fill the pot. A known amount of each test compound dissolved or suspended in an appropriate organic solvent was diluted with a 50:50 mix of acetone and water and applied to the surface of the soil. After treatment the plants were placed in a greenhouse with a 30/21° C. day/night temperature regime where they received 0.64 cm of overhead irrigation. All subsequent watering consisted of a light overhead mist and/or subirrigation as needed for germination and growth.
(§4) Approximately 14 days after planting and treating, the plants were observed and herbicidal efficacy recorded as percent inhibition by comparison with untreated plants.
(§5) The plant species usually regarded as weeds which were utilized in the tests are identified in the tables below according to the following legend, in which “d” indicates a dicotyledonous species and “m” a monocotyledonous species. All monocotyledonous species included in the tests herein are grasses.

DATST = experiment: Pre-emergence herbicidal activity on DATST (jimsonweed); type: in vivo, Datura stramonium
How it was run: as §1

ABUTH = experiment: Pre-emergence herbicidal activity on ABUTH (velvetleaf); type: in vivo, Abutilon theophrasti
How it was run: as §1

PANDI = experiment: Pre-emergence herbicidal activity on PANDI (fall panicum); type: in vivo, Panicum dichotomiflorum
How it was run: as §1

CONAR = experiment: Pre-emergence herbicidal activity on CONAR (field bindweed); type: in vivo, Convolvulus arvensis
Description: as §2, §3, §4, §5

AMARE = experiment: Pre-emergence herbicidal activity on AMARE (redroot pigweed); type: in vivo, Amaranthus retroflexus
How it was run: as §1

BRAPP = experiment: Pre-emergence herbicidal activity on BRAPP (broadleaf signalgrass); type: in vivo, Brachiaria platyphylla
How it was run: as §1

PANMI = experiment: Pre-emergence herbicidal activity on PANMI (wild proso millet); type: in vivo, Panicum miliaceum
How it was run: as §1

SORHA = experiment: Pre-emergence herbicidal activity on SORHA (johnsongrass, seedling); type: in vivo, Sorghum halepense
How it was run: as §1

SETFA = experiment: Pre-emergence herbicidal activity on SETFA (giant foxtail); type: in vivo, Setaria faberi
How it was run: as §1

SORVU = experiment: Pre-emergence herbicidal activity on SORVU (shattercane); type: in vivo, Sorghum vulgare
Description: as §2, §3, §4, §5

DIGSA = experiment: Pre-emergence herbicidal activity on DIGSA (large crabgrass); type: in vivo, Digitaria sanguinalis
How it was run: as §1

| SMILES | Pre-emergence activity (GR80) on SOLNI (SOLNI) | Pre-emergence activity (GR80) on PORAL (POROL) | Pre-emergence activity (GR80) on CIRAR (CIRAR) [g/ha] | Pre-emergence activity (GR80) on CHEAL (CHEAL) [g/ha] | Pre-emergence activity (GR80) on ECHCG (ECHCG) | Pre-emergence activity (GR80) on DATST (DATST) [g/ha] | Pre-emergence activity (GR80) on ABUTH (ABUTH) | Pre-emergence activity (GR80) on PANDI (PANDI) [g/ha] | Pre-emergence activity (GR80) on CONAR (CONAR) | Pre-emergence activity (GR80) on AMARE (AMARE) [g/ha] | Pre-emergence activity (GR80) on BRAPP (BRAPP) | Pre-emergence activity (GR80) on PANMI (PANMI) | Pre-emergence activity (GR80) on SORHA (SORHA) | Pre-emergence activity (GR80) on SETFA (SETFA) [g/ha] | Pre-emergence activity (GR80) on SORVU (SORVU) | Pre-emergence activity (GR80) on DIGSA (DIGSA) [g/ha] |
| --- | --- | --- | --- | --- | --- | --- | --- | --- | --- | --- | --- | --- | --- | --- | --- | --- |
| Cc1c(Cl)cccc1C(=O)NC(C)CNC(=O)c1cccc(C(F)(F)F)c1 (centres unmarked) [Example 51] | 125 g/ha | 64 g/ha | 125 | 64 | * (Where herbicidal activity was evident but 80% inhibition was not achieved at the highest rate tested (typically 1000 g/ha), an asterisk (*) is shown) | 250 | 250 g/ha | 250 | 1000 g/ha | 125 | 500 g/ha | 250 g/ha | 1000 g/ha | 250 | phyto | 64 |
| COc1c(F)cccc1C(=O)NC(C)CNC(=O)c1cccc(C(F)(F)F)c1 (centres unmarked) [Example 40] | phyto | * (Where herbicidal activity was evident but 80% inhibition was not achieved at the highest rate tested (typically 1000 g/ha), an asterisk (*) is shown) | – | 750 | phyto | 1000 | phyto | 750 | phyto | 750 | * (Where herbicidal activity was evident but 80% inhibition was not achieved at the highest rate tested (typically 1000 g/ha), an asterisk (*) is shown) | phyto | phyto | 1000 | phyto | – |
| Cc1ccc(Cl)cc1C(=O)NC(C)CNC(=O)c1cccc(C(F)(F)F)c1 (centres unmarked) [Example 47] | 125 g/ha | 125 g/ha | 125 | 64 | phyto | 250 | 250 g/ha | 250 | 750 g/ha | 64 | 500 g/ha | 250 g/ha | 750 g/ha | 250 | phyto | 125 |
| Cc1c(Cl)cccc1C(=O)NC(C)CNC(=O)c1cccc(C(F)(F)F)c1F (centres unmarked) [Example 150] | 64 g/ha | 32 g/ha | 125 | 32 | * (Where herbicidal activity was evident but 80% inhibition was not achieved at the highest rate tested (typically 1000 g/ha), an asterisk (*) is shown) | 32 | 1000 g/ha | 125 | 125 g/ha | 32 | * (Where herbicidal activity was evident but 80% inhibition was not achieved at the highest rate tested (typically 1000 g/ha), an asterisk (*) is shown) | 64 g/ha | * (Where herbicidal activity was evident but 80% inhibition was not achieved at the highest rate tested (typically 1000 g/ha), an asterisk (*) is shown) | 125 | phyto | 32 |
| CC(CNC(=O)c1cccc(C(F)(F)F)c1)NC(=O)c1cccc(OC(F)(F)F)c1 (centres unmarked) [Example 72] | – | 250 g/ha | 500 | 500 | phyto | 1000 | 1000 g/ha | 500 | * (Where herbicidal activity was evident but 80% inhibition was not achieved at the highest rate tested (typically 1000 g/ha), an asterisk (*) is shown) | 125 | 1000 g/ha | phyto | * (Where herbicidal activity was evident but 80% inhibition was not achieved at the highest rate tested (typically 1000 g/ha), an asterisk (*) is shown) | 500 | phyto | 250 |
| CC(CNC(=O)c1cccc(C(F)(F)F)c1)NC(=O)c1cccc(Br)c1F (centres unmarked) [Example 56] | 64 g/ha | 32 g/ha | 32 | 32 | 750 g/ha | 250 | 500 g/ha | 250 | * (Where herbicidal activity was evident but 80% inhibition was not achieved at the highest rate tested (typically 1000 g/ha), an asterisk (*) is shown) | 64 | 500 g/ha | 125 g/ha | 750 g/ha | 125 | – | 64 |
